From patent US20230218547A1, “CHEMICAL COMPOSITION” (The University of Liverpool, priority 2016, published 2023)
Read-outs that look alike come from different tables or passages of the source.

How the values were obtained:
[1] = Atovaquone release by Rapid Equilibrium Dialysis (RED) in Simulated Interstitial Fluid; type: physicochemical; settings: initial 6-hour period, SIF, 1 mg/mL atovaquone, 37° C.
Protocol: The release rate of atovaquone from solid compositions thereof in accordance with the invention, alongside an equivalent unformulated preparation of atovaquone, was assessed using Rapid Equilibrium Dialysis (RED) (ThermoFisher Scientific). The eleven ‘hit’ formulations were dispersed in Simulated Interstitial Fluid (SIF) and subsequently diluted to 1 mg/mL of atovaquone. The SIF consisted of 35 mg/mL bovine serum albumin (BSA) and 2 mg/mL γ-Globulin derived from bovine blood and dissolved in distilled water. Unformulated atovaquone was initially dissolved in DMSO prior to dilution with SIF, such that the DMSO volume was <1% of the total volume. […] Following incubation, 4 mL ultima gold liquid scintillation cocktail fluid (Meridian Biotechnologies, UK) was added to each 0.1 mL sample and radioactivity was determined as disintegrations per minute (DPM) using a Perkin Elmer 3100TS scintillation counter. Data is expressed as the amount of atovaquone released and diffused across the membrane as a percentage of the starting donor amount, in triplicate, for each of the eleven hit formulations as compared to unformulated atovaquone, as shown in FIGS. 3A-3K (error bars are ±1 S.D.) and FIG. 4 (release after 24 hours) (error bars are ±1 S.D.). […]

[2] = parameters: species or system mice; settings: mouse, in vivo
Protocol: Mice were injected intramuscularly with 200 mg/kg of an atovaquone nanoformulation. At intervals blood was harvested (microtainer tubes, BD Biosciences), centrifuged (1300×g, 10 min, 4° C.), and plasma was collected and stored at −80° C. until use. The nanoformulations tested were ACS_ATQ_7 and ACS_ATQ_8.
The concentration of atovaquone in the plasma was assayed by UPLC-MS/MS. Briefly, acetonitrile and deuterated atovaquone internal standard were added to 25 μL of thawed plasma, followed by filtration (Captiva filtration plate, Agilent Technologies). A 5 μL aliquot was separated on a reverse phase column and atovaquone was monitored by triple-quadrupole API4000 (SCIEX, Framingham, Mass., USA) mass analyzer with electrospray ionization. The assay was validated to FDA guidelines for 250-50,000 ng/mL. Values between 250 and 77 ng/mL (the limit of detection) were interpreted conservatively.

[3] = in vivo
[4] = orally dosed; mice; known value; cited from earlier work
[5] = humans; known value; cited from earlier work
[6] = background statement; cited from earlier work

With `O=C1C(O)=C([C@H]2CC[C@H](c3ccc(Cl)cc3)CC2)C(=O)c2ccccc21` [atovaquone] the “Release Rate” value ([1]; Table 3) was 0.006 h⁻¹, the “Release Rate” value ([1]; different loadings, Table 7) was 0.0060 h⁻¹ and the “plasma concentration of atovaquone that correlates with successful prophylaxis” value [2] was greater than 200 ng/mL. The “disposition of atovaquone in humans relative to mice” value [3] was “approximately eight”, the plasma half-life [4] was 9 h and the plasma half-life [5] was 70 h. For the same compound, the lipophilicity [6] was “highly lipophilic” and the solubility in water [6] was “practically insoluble”.
